Reference: publication PMC3549253, “Effect of repetitive lysine–tryptophan motifs on the bactericidal activity of antimicrobial peptides” (Amino Acids, 2012)
Converted amounts (≈) assume the structure as drawn. Like-named read-outs stand apart in the source and are kept apart here. Residues, ends and D or L forms follow the SMILES beside them. No end group written: not given here.

Experiments:
S. aureus CCARM 3114 = experiment: microbe, parasite or virus in culture; type: cell-based, Staphylococcus aureus
From the text: (§1) Escherichia coli (KCTC 1682), Salmonella typhimurium (KCTC 1926), Pseudomonas aeruginosa (KCTC 1637), Staphylococcus aureus (KCTC 1621), Bacillus subtilis (KCTC 1918), and Listeria monocytogenes (KCTC 3710) were obtained from the Korean Collection for Type Cultures (KCTC). Drug-resistant E. coli strains (CCARM 1229 and CCARM 1238), S. typhimurium strains (CCARM 8007, CCARM 8009, and CCARM 8013), and S. aureus strains (CCARM 3089, CCARM 3090, CCARM 3108, CCARM 3114, and CCARM 3126) were from the Culture Collection of Antibiotic-Resistant Microbes (CCARM) at Seoul Women’s University, Korea.
(§2) The antibacterial activities of the peptides against Gram-negative, Gram-positive and antibiotic-resistant bacterial strains were evaluated using the microbroth dilution method (Park et al. [2003]). Aliquots of culture medium containing bacterial suspensions in mid-logarithmic phase at a concentration of 2 × 10^5 colony forming units (CFU)/ml were added to each well of a multiwell plate containing peptide solution serially diluted 2× in 10 mM sodium phosphate buffer (pH 7.2) or phosphate-buffered saline (PBS, 1.5 mM KH2PO4, 2.7 mM KCl, 8.1 mM Na2HPO4, 150 mM NaCl, pH 7.2). Growth inhibition was evaluated by measuring the absorbance at 620 nm using a Versa-Max microplate Elisa Reader (Molecular Devices Co., Sunnyvale, CA, USA) after 24 h of incubation at 37° C. […] All MIC measurements were the average of 3–4 independent experiments.

S. aureus CCARM 3108 = experiment: microbe, parasite or virus in culture; type: cell-based, Staphylococcus aureus
From the text: as §1, §2

S. aureus CCARM 3089 = experiment: microbe, parasite or virus in culture; type: cell-based, Staphylococcus aureus
From the text: as §1, §2

S. aureus CCARM 3090 = experiment: microbe, parasite or virus in culture; type: cell-based, Staphylococcus aureus
From the text: as §1, §2

[1] = test system: Staphylococcus aureus (KCTC 1621); experiment: microbe, parasite or virus in culture; type: cell-based; settings: pH 7.2
From the text: as §1, §2

S. aureus CCARM 3126 = experiment: microbe, parasite or virus in culture
From the text: as §1
The antibacterial activities of the peptides against Gram-negative, Gram-positive and antibiotic-resistant bacterial strains were evaluated using the microbroth dilution method (Park et al. [2003]). Aliquots of culture medium containing bacterial suspensions in mid-logarithmic phase at a concentration of 2 × 10^5 colony forming units (CFU)/ml were added to each well of a multiwell plate containing peptide solution serially diluted 2× in 10 mM sodium phosphate buffer (pH 7.2) or phosphate-buffered saline (PBS, 1.5 mM KH2PO4, 2.7 mM KCl, 8.1 mM Na2HPO4, 150 mM NaCl, pH 7.2). Growth inhibition was evaluated by measuring the absorbance at 620 nm using a Versa-Max microplate Elisa Reader (Molecular Devices Co., Sunnyvale, CA, USA) after 24 h of incubation at 37° C.

[2] = test system: Listeria monocytogenes (KCTC 3710); type: cell-based; settings: KCTC 3710, 24 h, pH 7.2
From the text: as §1, §2

[3] = test system: Pseudomonas aeruginosa (KCTC 1637); type: cell-based; settings: KCTC 1637, 24 h, pH 7.2
From the text: as §1, §2

[4] = test system: Bacillus subtilis (KCTC 1918); type: cell-based; settings: KCTC 1918, 24 h, pH 7.2
From the text: as §1, §2

human red blood cells = experiment: Human red blood cell (hRBC) hemolysis; type: cell-based; settings: for MHC (minimal hemolytic concentration): minimal peptide concentration that produces 10 % hemolysis, hRBCs in PBS; for Hemolysis: 200 μM peptide in PBS pH 7.2, 4 % v/v hRBCs, 60 min at 37° C, absorbance 414 nm, 100 % = 0.1 % Triton X-100, triplicate
Experimental: Hemolytic activities of the peptides were assessed using heparinized hRBCs collected from healthy donors. Fresh hRBCs were washed three times by centrifugation at 800×g for 10 min in PBS (pH 7.2) and then resuspended in PBS. The peptides were then dissolved in PBS and added to 100 μl of stock hRBCs suspended in PBS (final RBC concentration, 4 % v/v), after which the samples were incubated with gentle agitation for 60 min at 37° C before centrifugation for 10 min at 800×g. Absorbance of the supernatants was recorded at 414 nm. In addition, control samples for zero hemolysis and 100 % hemolysis were incubated with PBS (A blank) or 0.1 % Triton X-100 (A triton), respectively. Melittin was used as a reference hemolytic peptide. Percent hemolysis was calculated according to the following equation: Each measurement was conducted in triplicate (Kim et al. [2011]).

[5] = test system: Escherichia coli (KCTC 1682); experiment: microbe, parasite or virus in culture; type: cell-based; settings: pH 7.2
From the text: as §1, §2

[6] = test system: S. typhimurium CCARM 8007; experiment: microbe, parasite or virus in culture; type: cell-based, Salmonella typhimurium
From the text: as §1, §2

[7] = test system: S. typhimurium CCARM 8013; experiment: microbe, parasite or virus in culture; type: cell-based, Salmonella typhimurium
From the text: as §1, §2

[8] = test system: S. typhimurium CCARM 8009; experiment: microbe, parasite or virus in culture; type: cell-based, Salmonella typhimurium
From the text: as §1, §2

E. coli CCARM 1229 = experiment: microbe, parasite or virus in culture; type: cell-based, Escherichia coli
From the text: as §1, §2

E. coli CCARM 1238 = experiment: microbe, parasite or virus in culture; type: cell-based, Escherichia coli
From the text: as §1, §2

[9] = test system: Salmonella typhimurium (KCTC 1926); experiment: microbe, parasite or virus in culture; type: cell-based; settings: pH 7.2
From the text: as §1, §2

[10] = drug-resistant strain, PBS, pH 7.2 (number in parentheses), 2 × 10^5 CFU/ml, 24 h at 37° C, average of 3–4 independent experiments
[11] = drug-resistant strain, 10 mM sodium phosphate buffer, pH 7.2, 2 × 10^5 CFU/ml, 24 h at 37° C, average of 3–4 independent experiments
[12] = Salmonella enterica, drug-resistant strain, 10 mM sodium phosphate buffer, pH 7.2, 2 × 10^5 CFU/ml, 24 h at 37° C, average of 3–4 independent experiments, read-out: MIC
[13] = drug-resistant strain, 10 mM sodium phosphate buffer, pH 7.2, 2 × 10^5 CFU/ml, 24 h at 37° C, average of 3–4 independent experiments, read-out: MIC

Cc1onc(-c2ccccc2)c1C(=O)N[C@@H]1C(=O)N2[C@@H]1SC(C)(C)[C@@H]2C(=O)O [Oxacillin, reference compound]
MIC (S. aureus CCARM 3114; Staphylococcus aureus, CCARM3114, drug-resistant strain, 10 mM sodium phosphate buffer, pH 7.2, 2 × 10^5 CFU/ml, 24 h at 37° C, average of 3–4 independent experiments, read-out: MIC): > 200 µM
MIC (S. aureus CCARM 3114; [10]): >200 (>200) μM
MIC (S. aureus CCARM 3108; Staphylococcus aureus, CCARM3108, drug-resistant strain, 10 mM sodium phosphate buffer, pH 7.2, 2 × 10^5 CFU/ml, 24 h at 37° C, average of 3–4 independent experiments, read-out: MIC): > 200 µM
MIC (S. aureus CCARM 3108; [10]): >200 (>200) μM
MIC (S. aureus CCARM 3089; Staphylococcus aureus, CCARM3089, drug-resistant strain, 10 mM sodium phosphate buffer, pH 7.2, 2 × 10^5 CFU/ml, 24 h at 37° C, average of 3–4 independent experiments, read-out: MIC): > 200 µM
MIC (S. aureus CCARM 3089; [10]): >200 (>200) μM
MIC (S. aureus CCARM 3090; Staphylococcus aureus, CCARM3090, drug-resistant strain, 10 mM sodium phosphate buffer, pH 7.2, 2 × 10^5 CFU/ml, 24 h at 37° C, average of 3–4 independent experiments, read-out: MIC): > 200 µM
MIC (S. aureus CCARM 3090; [10]): >200 (>200) μM
MIC ([1]; Staphylococcus aureus, KCTC1621, 10 mM sodium phosphate buffer, 2 × 10^5 CFU/ml, 24 h at 37° C, average of 3–4 independent experiments, read-out: MIC): 12.5 µM (≈ 5.02 µg/mL)
MIC (S. aureus CCARM 3126; Staphylococcus aureus, CCARM3126, 24 h, pH 7.2): > 200 µM
MIC (S. aureus CCARM 3126; [10]): >200 (>200) μM

NCCCC[C@H](NC(=O)[C@H](Cc1c[nH]c2ccccc12)NC(=O)[C@@H](N)CCCCN)C(=O)N[C@@H](Cc1c[nH]c2ccccc12)C(N)=O [(KW)2, KWKW-NH2] (H-KWKW-NH2)
MIC [2]: 200 (>200) μM
MIC [3]: >200 (>200) μM
MIC [4]: >200 (>200) μM
MHC (minimal hemolytic concentration) (human red blood cells): 550 µM
MIC (S. aureus CCARM 3114; CCARM 3114, 24 h, pH 7.2): >200 (>200) μM
MIC (S. aureus CCARM 3108; CCARM 3108, 24 h, pH 7.2): >200 (>200) μM
MIC (S. aureus CCARM 3089; CCARM 3089, 24 h, pH 7.2): >200 (>200) μM
MIC (S. aureus CCARM 3090; CCARM 3090, 24 h, pH 7.2): >200 (>200) μM
MIC ([1]; KCTC 1621, 24 h): >200 (>200) μM
MIC ([5]; KCTC 1682, 24 h): >200 (>200) μM
MIC ([6]; CCARM 8007, 24 h, pH 7.2): >200 (>200) μM
MIC ([7]; CCARM 8013, 24 h, pH 7.2): >200 (>200) μM
MIC ([8]; CCARM 8009, 24 h, pH 7.2): >200 (>200) μM
MIC (E. coli CCARM 1229; CCARM 1229, 24 h, pH 7.2): >200 (>200) μM
MIC (E. coli CCARM 1238; CCARM 1238, 24 h, pH 7.2): >200 (>200) μM

KWKWKWKW-NH2 [(KW)4, KWKWKWKW-NH2]
MIC [2]: 3.12 (3.12) μM
MIC [3]: 3.12 (3.12) μM
Hemolysis (human red blood cells): 8%
MHC (minimal hemolytic concentration) (human red blood cells): 210 µM
MIC (S. aureus CCARM 3114; [11]): 12.5 (12.5) μM
MIC (S. aureus CCARM 3114; [10]): 12.5 (12.5) μM
MIC (S. aureus CCARM 3108; [11]): 12.5 (12.5) μM
MIC (S. aureus CCARM 3108; [10]): 12.5 (12.5) μM
MIC (S. aureus CCARM 3089; [11]): 12.5 (12.5) μM
MIC (S. aureus CCARM 3089; [10]): 12.5 (12.5) μM
MIC (S. aureus CCARM 3090; [11]): 12.5 (12.5) μM
MIC (S. aureus CCARM 3090; [10]): 12.5 (12.5) μM
MIC ([9]; KCTC 1926, 24 h): 1.56 (1.56) μM
MIC (S. aureus CCARM 3126; [11]): 12.5 (12.5) μM
MIC (S. aureus CCARM 3126; [10]): 12.5 (12.5) μM
MIC [6, 11]: 12.5 (12.5) μM
MIC [6, 10]: 12.5 (12.5) μM
MIC (E. coli CCARM 1238; [11]): 12.5 (12.5) μM
MIC (E. coli CCARM 1238; [10]): 12.5 (12.5) μM

CC1(C)S[C@@H]2[C@H](NC(=O)[C@H](N)c3ccccc3)C(=O)N2[C@H]1C(=O)O [Ampicillin, reference compound]
MIC ([9]; Salmonella enterica, 10 mM sodium phosphate buffer, 2 × 10^5 CFU/ml, 24 h at 37° C, average of 3–4 independent experiments, read-out: MIC): 25 µM (≈ 8.74 µg/mL)
MIC ([5]; Escherichia coli, KCTC1682, 24 h): 50 µM (≈ 17.5 µg/mL)
MIC [6, 12]: > 200 µM
MIC [6, 10]: >200 (>200) μM
MIC [7, 12]: > 200 µM
MIC [7, 10]: >200 (>200) μM
MIC [8, 12]: > 200 µM
MIC [8, 10]: >200 (>200) μM
MIC (E. coli CCARM 1229; Escherichia coli, CCARM1229, drug-resistant strain, 10 mM sodium phosphate buffer, pH 7.2, 2 × 10^5 CFU/ml, 24 h at 37° C, average of 3–4 independent experiments, read-out: MIC): > 200 µM
MIC (E. coli CCARM 1229; [10]): >200 (>200) μM
MIC (E. coli CCARM 1238; Escherichia coli, CCARM1238, drug-resistant strain, 10 mM sodium phosphate buffer, pH 7.2, 2 × 10^5 CFU/ml, 24 h at 37° C, average of 3–4 independent experiments, read-out: MIC): > 200 µM
MIC (E. coli CCARM 1238; [10]): >200 (>200) μM

KWKWKW-NH2 [(KW)3, KWKWKW-NH2]
MHC (minimal hemolytic concentration) (human red blood cells): 350 µM
MIC (S. aureus CCARM 3126; [11]): 50 µM
MIC (S. aureus CCARM 3126; [10]): 200 µM

KWKWKWKWKW-NH2 [(KW)5, KWKWKWKWKW-NH2]
MIC [2]: 3.12 (3.12) μM
MIC [4]: 12.5 (12.5) μM
Hemolysis (human red blood cells): 71%
MHC (minimal hemolytic concentration) (human red blood cells): 50 µM
MIC (S. aureus CCARM 3114; [13]): 25 µM
MIC (S. aureus CCARM 3090; [13]): 25 µM
MIC ([1]; KCTC 1621, 24 h, read-out: MIC): 25 µM
MIC (S. aureus CCARM 3126; [11]): 25 µM
MIC [6, 13]: 25 µM
MIC [7, 13]: 25 µM
MIC [8, 13]: 25 µM
